# Numbered stars: 1 amine (or outer) side, 2 acyl side, 3 side chain; on linkers, the order of the positions; unused ones are H or OH. Bridge positions count the residues as written; N and C are the ends. Square brackets hold non-standard residues; d marks the D form. Peptide text beside a SMILES is read from it. * marks the point of attachment. TtdsdLys(DOTA)NH2 = NC(=O)[C@@H](CCCCNC(=O)CN1CCN(CC(=O)O)CCN(CC(=O)O)CCN(CC(=O)O)CC1)NC(=O)CCC(=O)NCCCOCCOCCOCCCN*; X9 = C=C(N([C@@H](Cc1ccc(Cl)cc1)C(=O)[*:2])[*:1])C(C)(C)NC(=O)[C@@H](NC(C)=O)[C@@H](C)O; DOTA = O=C(O)CN1CCN(CC(=O)O)CCN(CC(=O)*)CCN(CC(=O)O)CC1; Arg(Me2a) = CN(C)C(=N)NCCC[C@H](N)C(=O)O; Phe(4-Cl) = N[C@@H](Cc1ccc(Cl)cc1)C(=O)O; 1Nal = N[C@@H](Cc1cccc2ccccc12)C(=O)O; Arg(Me) = CNC(=N)NCCC[C@H](N)C(=O)O; Lys(iPr) = CC(C)NCCCC[C@H](N)C(=O)O; NMeR = CN[C@@H](CCCNC(=N)N)C(=O)O; X1 = O=C(CC1CCN([*:1])CC1)[*:2]; Cit = NC(=O)NCCC[C@H](N)C(=O)O; Lys(Me) = CNCCCC[C@H](N)C(=O)O; Tle = CC(C)(C)[C@H](N)C(=O)O; αMeP = C[C@@]1(C(=O)O)CCCN1; Nle = CCCC[C@H](N)C(=O)O; Orn = NCCC[C@H](N)C(=O)O; Aib = CC(C)(N)C(=O)O; Guanidino = N=C(N)N*; Sar = CNCC(=O)O
# Experiments:
# [1] = molecular target: T1, Fc-fusion protein of human PSMA (hPSMA-Fc) (Homo sapiens, UniProt Q04609); experiment: Surface plasmon resonance assay (Biacore T200, single cycle kinetic); type: binding; conditions: SPR, hPSMA-Fc, single cycle kinetic, 25° C.; category; read-out: pKD CAT (converted)
# T1 construct: purchased Acro Biosystems PSA-H5264
# T1 sequence (Q04609 44-750 limits assumed): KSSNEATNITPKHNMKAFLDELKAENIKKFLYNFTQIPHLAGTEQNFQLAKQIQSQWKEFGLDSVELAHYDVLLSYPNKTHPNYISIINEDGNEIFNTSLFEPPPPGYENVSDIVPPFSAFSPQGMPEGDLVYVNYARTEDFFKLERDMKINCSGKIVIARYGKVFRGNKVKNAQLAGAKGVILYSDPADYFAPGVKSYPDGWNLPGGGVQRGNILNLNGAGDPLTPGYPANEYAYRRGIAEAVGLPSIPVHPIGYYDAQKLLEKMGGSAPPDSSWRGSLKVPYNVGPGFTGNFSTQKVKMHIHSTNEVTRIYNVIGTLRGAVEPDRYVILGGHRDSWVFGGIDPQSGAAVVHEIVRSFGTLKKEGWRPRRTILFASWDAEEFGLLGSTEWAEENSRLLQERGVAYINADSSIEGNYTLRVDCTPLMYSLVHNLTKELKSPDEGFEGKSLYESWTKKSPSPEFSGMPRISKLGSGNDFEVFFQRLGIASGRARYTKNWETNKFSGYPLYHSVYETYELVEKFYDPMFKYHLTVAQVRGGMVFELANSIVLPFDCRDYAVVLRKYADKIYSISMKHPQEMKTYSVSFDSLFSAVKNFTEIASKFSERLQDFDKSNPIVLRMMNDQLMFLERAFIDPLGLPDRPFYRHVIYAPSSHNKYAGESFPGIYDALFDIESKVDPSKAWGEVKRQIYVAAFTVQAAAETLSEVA
# Outline: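 hPSMA-Fc was captured (~1000 RU) on an Fc-binding-peptide CM5 chip, and compounds were run in single cycle kinetic mode at 25° C in HBST with 0.1% DMSO. Double-blank-corrected sensorgrams were fitted to a 1:1 Langmuir model to give KD, reported as pKD.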
# [2] = molecular target: T2, PSMA-expressing C4-2 cells (Homo sapiens, UniProt Q04609); experiment: FACS binding assay (competition with 50 nM PSM-0183); conditions: FACS binding, C4-2 cells, competition with 50 nM PSM-0183; category; read-out: pIC50 [C4-2] CAT (converted)
# T2 construct: PSMA-expressing C4-2 cells (ATCC, Cat. No. CRL-3314) were cultured in RPMI-1640; host or cells: C4-2 cells
# T2 sequence (Q04609 whole entry): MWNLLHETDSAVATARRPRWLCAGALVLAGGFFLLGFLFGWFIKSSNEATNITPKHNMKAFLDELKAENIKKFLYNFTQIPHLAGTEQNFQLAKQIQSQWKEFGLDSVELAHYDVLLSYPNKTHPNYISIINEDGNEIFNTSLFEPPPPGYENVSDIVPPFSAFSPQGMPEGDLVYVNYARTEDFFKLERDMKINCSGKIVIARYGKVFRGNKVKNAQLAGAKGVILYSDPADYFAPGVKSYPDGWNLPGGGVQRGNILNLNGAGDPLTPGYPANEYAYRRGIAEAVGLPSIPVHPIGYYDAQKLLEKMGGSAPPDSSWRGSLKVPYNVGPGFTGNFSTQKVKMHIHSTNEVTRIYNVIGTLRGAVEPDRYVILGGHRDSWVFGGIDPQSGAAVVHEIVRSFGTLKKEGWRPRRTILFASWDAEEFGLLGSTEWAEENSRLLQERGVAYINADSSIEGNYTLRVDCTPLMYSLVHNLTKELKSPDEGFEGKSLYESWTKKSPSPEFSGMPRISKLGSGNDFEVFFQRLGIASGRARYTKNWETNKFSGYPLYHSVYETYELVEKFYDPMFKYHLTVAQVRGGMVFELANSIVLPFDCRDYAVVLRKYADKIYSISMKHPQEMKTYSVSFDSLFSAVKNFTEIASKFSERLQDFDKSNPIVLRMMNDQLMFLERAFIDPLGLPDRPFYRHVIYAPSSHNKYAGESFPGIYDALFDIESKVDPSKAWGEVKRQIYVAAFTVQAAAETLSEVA
# Outline: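 C4-2 cells were incubated 1 h at 4 °C with 50 nM AF488-labelled peptide PSM-0183 plus increasing test compound concentrations, then washed twice in ice-cold buffer. Median fluorescence in the AF488 channel was read by flow cytometry. IC50/pIC50 was derived by 4PL fitting of MFI versus concentration.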
Compound,Kd [1],IC50 [2]
"CC(=O)NC(C)(C)C(=O)N[C@@H](Cc1ccccc1)C(=O)N[C@H]1CSSC[C@@H](C(=O)N[C@H](C(=O)N[C@H](C(N)=O)[C@@H](C)O)C(C)(C)C)NC(=O)[C@H](CC(N)=O)NC(=O)C(C)(C)NC(=O)[C@H](CCCNC(=N)N)NC(=O)[C@H](CCCCN)NC1=O [PSM-0228, Ac-Aib-Phe-[Cys-Lys-Arg-Aib-Asn-Cys]-Tle-Thr-NH2] (Ac-[Aib]FCKR[Aib]NC[Tle]T-NH2; disulfide 3-8)",< 12.6 nM,< 200 nM
"CC(=O)N[C@H](C(=O)NC(C)(C)C(=O)N[C@@H](Cc1ccccc1)C(=O)N[C@H]1CSSC[C@@H](C(=O)N[C@H](C(N)=O)C(C)(C)C)NC(=O)[C@H](CC(N)=O)NC(=O)C(C)(C)NC(=O)[C@H](CCCNC(=N)N)NC(=O)[C@H](CCCCN)NC1=O)[C@@H](C)O [PSM-0230, Ac-Thr-Aib-Phe-[Cys-Lys-Arg-Aib-Asn-Cys]-Tle-NH2] (Ac-T[Aib]FCKR[Aib]NC[Tle]-NH2; disulfide 4-9)",< 12.6 nM,< 200 nM
"CC(=O)N[C@H](C(=O)NC(C)(C)C(=O)N[C@@H](Cc1ccccc1)C(=O)N[C@H]1CSSC[C@@H](C(=O)N[C@H](C(=O)N[C@H](C(=O)NCCCOCCOCCOCCCNC(=O)CCC(=O)N[C@H](CCCCNC(=O)CN2CCN(CC(=O)O)CCN(CC(=O)O)CCN(CC(=O)O)CC2)C(N)=O)[C@@H](C)O)C(C)(C)C)NC(=O)[C@H](CC(N)=O)NC(=O)[C@H](C)NC(=O)[C@H](CCCNC(=N)N)NC(=O)[C@H](CCCCN)NC1=O)[C@@H](C)O [PSM-0231, Ac-Thr-Aib-Phe-[Cys-Lys-Arg-Ala-Asn-Cys]-Tle-Thr-Ttds-lys(DOTA)-NH2] (Ac-T[Aib]FCKRANC[Tle]T-{TtdsdLys(DOTA)NH2}; disulfide 4-9)",< 12.6 nM,< 200 nM
"CC(=O)N[C@H](C(=O)NC(C)(C)C(=O)N[C@@H](Cc1ccccc1)C(=O)N[C@H]1CSSC[C@@H](C(=O)N[C@H](C(=O)N[C@H](C(N)=O)[C@@H](C)O)C(C)(C)C)NC(=O)[C@H](CC(N)=O)NC(=O)CN(C)C(=O)[C@H](CCCNC(=N)N)NC(=O)[C@H](CCCCN)NC1=O)[C@@H](C)O [PSM-0232, Ac-Thr-Aib-Phe-[Cys-Lys-Arg-Nmg-Asn-Cys]-Tle-Thr-NH2] (Ac-T[Aib]FCKR[Sar]NC[Tle]T-NH2; disulfide 4-9)",< 12.6 nM,< 200 nM
"CC(=O)N[C@H](C(=O)NC(C)(C)C(=O)N[C@@H](Cc1ccccc1)C(=O)N[C@H]1CSSC[C@@H](C(=O)N[C@H](C(=O)N[C@H](C(N)=O)[C@@H](C)O)C(C)(C)C)NC(=O)[C@H](CC(N)=O)NC(=O)[C@]2(C)CCCN2C(=O)[C@H](CCCNC(=N)N)NC(=O)[C@H](CCCCN)NC1=O)[C@@H](C)O [PSM-0233, Ac-Thr-Aib-Phe-[Cys-Lys-Arg-Pam-Asn-Cys]-Tle-Thr-NHZ] (Ac-T[Aib]FCKR[αMeP]NC[Tle]T-NH2; disulfide 4-9)",< 12.6 nM,< 200 nM
"CC(=O)N[C@H](C(=O)NC(C)(C)C(=O)N[C@@H](Cc1ccccc1)C(=O)N[C@H]1CSSC[C@@H](C(=O)N[C@H](C(=O)N[C@H](C(N)=O)[C@@H](C)O)C(C)(C)C)NC(=O)[C@H](CC(N)=O)NC(=O)C(C)(C)NC(=O)[C@H](CCCNC(=N)N)N(C)C(=O)[C@H](CCCCN)NC1=O)[C@@H](C)O [PSM-0235, Ac-Thr-Aib-Phe-[Cys-Lys-Nmr-Aib-Asn-Cys]-Tle-Thr-NH2] (Ac-T[Aib]FCK[NMeR][Aib]NC[Tle]T-NH2; disulfide 4-9)",126 to 501 nM,200 to 1260 nM
"CCCC[C@@H]1NC(=O)[C@@H](NC(=O)[C@H](Cc2ccc(Cl)cc2)NC(=O)C(C)(C)NC(=O)[C@@H](NC(C)=O)[C@@H](C)O)CSSC[C@@H](C(=O)N[C@H](C(=O)N[C@H](C(N)=O)[C@@H](C)O)C(C)(C)C)NC(=O)[C@H](CC(N)=O)NC(=O)C(C)(C)NC(=O)[C@H](CCC(=O)NC(=N)N)NC1=O [PSM-0236, Ac-Thr-Aib-Pcf-[Cys-Nle-Gln(Gu)-Aib-Asn-Cys]-Tle-Thr-NH2] (Ac-T[Aib][Phe(4-Cl)]C[Nle]E(Guanidino)[Aib]NC[Tle]T-NH2; disulfide 4-9)",< 12.6 nM,< 200 nM
"CC(=O)N[C@H](C(=O)NC(C)(C)C(=O)N[C@@H](Cc1ccc(Cl)cc1)C(=O)N[C@H]1CSSC[C@@H](C(=O)N[C@H](C(=O)N[C@H](C(N)=O)[C@@H](C)O)C(C)(C)C)NC(=O)[C@H](Cc2c[nH]c3ccccc23)NC(=O)C(C)(C)NC(=O)[C@H](CCCNC(N)=O)NC(=O)[C@H](CCCCN)NC1=O)[C@@H](C)O [PSM-0238, Ac-Thr-Aib-Pcf-[Cys-Lys-Cit-Aib-Trp-Cys]-Tle-Thr-NH2] (Ac-T[Aib][Phe(4-Cl)]CK[Cit][Aib]WC[Tle]T-NH2; disulfide 4-9)",< 12.6 nM,< 200 nM
"C=C(N[C@@H](Cc1ccc(Cl)cc1)C(=O)N[C@H]1CSSC[C@@H](C(=O)N[C@H](C(=O)N[C@H](C(N)=O)[C@@H](C)O)C(C)(C)C)NC(=O)[C@H](CCCNC(=N)N)NC(=O)C(C)(C)NC(=O)[C@H](CCCNC(N)=O)NC(=O)[C@H](CCCCN)NC1=O)C(C)(C)NC(=O)[C@@H](NC(C)=O)[C@@H](C)O [PSM-0240, Ac-Thr-Aib-Pcf-[Cys-Lys-Cit-Aib-Arg-Cys]-Tle-Thr-NH2] (H-[X9]CK[Cit][Aib]RC[Tle]T-NH2; disulfide 2-7)",< 12.6 nM,< 200 nM
"CNC(=N)NCCC[C@@H]1NC(=O)[C@H](CCCCNC(C)C)NC(=O)[C@@H](NC(=O)[C@H](Cc2ccc(Cl)cc2)NC(=O)C(C)(C)NC(=O)[C@@H](NC(=O)CC2CCN(C(=O)CN3CCN(CC(=O)O)CCN(CC(=O)O)CCN(CC(=O)O)CC3)CC2)[C@@H](C)O)CSSC[C@@H](C(=O)N[C@H](C(=O)N[C@H](C(N)=O)[C@@H](C)O)C(C)(C)C)NC(=O)[C@H](CC(N)=O)NC(=O)C(C)(C)NC1=O [PSM-0244, DOTA-Cmp-Thr-Aib-Pcf-[Cys-Kip-Arg(Me)-Aib-Asn-Cys]-Tle-Thr-NH2] ({DOTA}-[X1]T[Aib][Phe(4-Cl)]C[Lys(iPr)][Arg(Me)][Aib]NC[Tle]T-NH2; disulfide 5-10)",< 12.6 nM,< 200 nM
"C[C@@H](O)[C@H](NC(=O)[C@@H](NC(=O)[C@@H]1CSSC[C@H](NC(=O)[C@H](Cc2ccc(Cl)cc2)NC(=O)C(C)(C)NC(=O)[C@@H](NC(=O)CC2CCN(C(=O)CN3CCN(CC(=O)O)CCN(CC(=O)O)CCN(CC(=O)O)CC3)CC2)[C@@H](C)O)C(=O)N[C@@H](CCCCN)C(=O)N[C@@H](CCCN)C(=O)NC(C)(C)C(=O)N[C@@H](CC(N)=O)C(=O)N1)C(C)(C)C)C(N)=O [PSM-0245, DOTA-Cmp-Thr-Aib-Pcf-[Cys-Lys-Orn-Aib-Asn-Cys]-Tle-Thr-NH2] ({DOTA}-[X1]T[Aib][Phe(4-Cl)]CK[Orn][Aib]NC[Tle]T-NH2; disulfide 5-10)",< 12.6 nM,< 200 nM
"CNCCCC[C@@H]1NC(=O)[C@@H](NC(=O)[C@H](Cc2ccc(Cl)cc2)NC(=O)C(C)(C)NC(=O)[C@@H](NC(=O)CC2CCN(C(=O)CN3CCN(CC(=O)O)CCN(CC(=O)O)CCN(CC(=O)O)CC3)CC2)[C@@H](C)O)CSSC[C@@H](C(=O)N[C@H](C(=O)N[C@H](C(N)=O)[C@@H](C)O)C(C)(C)C)NC(=O)[C@H](CC(N)=O)NC(=O)[C@@H](C)NC(=O)[C@H](CCCNC(=N)NC)NC1=O [PSM-0246, DOTA-Cmp-Thr-Aib-Pcf-[Cys-Lys(Me)-Arg(Me)-ala-Asn-Cys]-Tle-Thr-NH2] ({DOTA}-[X1]T[Aib][Phe(4-Cl)]C[Lys(Me)][Arg(Me)][dA]NC[Tle]T-NH2; disulfide 5-10)",< 12.6 nM,< 200 nM
"CNCCCC[C@@H]1NC(=O)[C@@H](NC(=O)[C@H](Cc2ccc(Cl)cc2)NC(=O)C(C)(C)NC(=O)[C@@H](NC(=O)CC2CCN(C(=O)CN3CCN(CC(=O)O)CCN(CC(=O)O)CCN(CC(=O)O)CC3)CC2)[C@@H](C)O)CSSC[C@@H](C(=O)N[C@H](C(=O)N[C@H](C(N)=O)[C@@H](C)O)C(C)(C)C)NC(=O)[C@H](CC(N)=O)NC(=O)C(C)(C)NC(=O)[C@H](CCCNC(=N)N(C)C)NC1=O [PSM-0247, DOTA-Cmp-Thr-Aib-Pcf-[Cys-Lys(Me)-RMe2-Aib-Asn-Cys]-Tle-Thr-NH2] ({DOTA}-[X1]T[Aib][Phe(4-Cl)]C[Lys(Me)][Arg(Me2a)][Aib]NC[Tle]T-NH2; disulfide 5-10)",< 12.6 nM,< 200 nM
"C[C@@H](O)[C@H](NC(=O)[C@@H](NC(=O)[C@@H]1CSSC[C@H](NC(=O)[C@H](Cc2ccc(Cl)cc2)NC(=O)C(C)(C)NC(=O)CC2CCN(C(=O)CN3CCN(CC(=O)O)CCN(CC(=O)O)CCN(CC(=O)O)CC3)CC2)C(=O)N[C@@H](CCCCN)C(=O)N[C@@H](CCCNC(=N)N)C(=O)NC(C)(C)C(=O)N[C@@H](CC(N)=O)C(=O)N1)C(C)(C)C)C(N)=O [PSM-0248, DOTA-Cmp-Aib-Pcf-[Cys-Lys-Arg-Aib-Asn-Cys]-Tle-Thr-NH2] ({DOTA}-[X1][Aib][Phe(4-Cl)]CKR[Aib]NC[Tle]T-NH2; disulfide 4-9)",12.6 to 126 nM,< 200 nM
"CC(=O)N[C@H](C(=O)NC(C)(C)C(=O)N[C@@H](Cc1cccc2ccccc12)C(=O)N[C@H]1CSSC[C@@H](C(=O)N[C@H](C(=O)N[C@H](C(=O)N[C@@H](CC(=O)O)C(N)=O)[C@@H](C)O)C(C)(C)C)NC(=O)[C@H](CC(N)=O)NC(=O)C(C)(C)NC(=O)[C@H](CCCNC(=N)N)NC(=O)[C@H](CCCCN)NC1=O)[C@@H](C)O [PSM-0249, Ac-Thr-Aib-1Ni-[Cys-Lys-Arg-Aib-Asn-Cys]-Tle-Thr-Asp-NH2] (Ac-T[Aib][1Nal]CKR[Aib]NC[Tle]TD-NH2; disulfide 4-9)",< 12.6 nM,< 200 nM
